Columns and labels:
[1] = system: CL097 triggered IFNα release in human whole blood; test: Ex vivo human IFNα release inhibition (human whole blood assay); type: cell-based; settings: CL097 2 μg/mL, 3 h 30 min at 37° C.
Text: (§1) 4.10.1. Ex Vivo Human IFNα and TNFα Release Inhibition (Human Whole Blood Assay)
(§2) The aim of the assay is to evaluate the activity of compounds of the invention on the activated TLR/IRAK-4 pathway in an ex vivo human whole blood setting. Toll-like receptors (TLRs) are pattern recognition receptors that recognize a wide variety of microbial molecules, called pathogen-associated molecular patterns (PAMPs). Human TLR7 and TLR8 recognize imidazoquinoline compounds (e.g., CL097—CAS n #1026249-18-2) and single stranded RNAs as their natural ligands. Activation of TLRs leads to the production of several cytokines (e.g., IFNα, TNFα, IL-8, IL-6) by the TLR agonist-treated cells, whereas IRAK4 leads to the production of IFNα. Cytokine release is used as readout in this assay and represents a measure for the level of inhibition of the TLR/IRAK-4 pathway by the tested compound. It should be noted that in the context of the complete organism, other sources for these cytokines exist that are not dependent on the TLR/IRAK-4 pathway, such as e.g., macrophages (upon activation of the Fcγ receptor (Yan et al., 2012)) or T cells (upon activation of the T cell receptor (Brehm et al., 2005)).
(§3) 4.10.1.1. Experimental Design
(§4) Blood was collected from healthy volunteers into lithium heparin tubes by venipuncture, then gently inverted several times to prevent clotting and incubated for at least 15 min at 37° C. on a rocking mixer shaker. Then, 100 μL of blood was dispensed into polypropylene 96-well microplate and pre-incubated in duplicate with 0.3% DMSO or test compound at different concentrations (from 30 to 0.01 μM, 3-fold dilutions to get 0.3% DMSO at the final) for 15 min at 37° C. After this pre-incubation, blood was triggered with CL097 (2 μg/mL from 1 mg/mL solution in water; InvivoGen, tlrl-c97) for 3 h 30 min at 37° C. Microtubes were centrifuged at 5000×g for 10 min at 4° C. and approximately 40 μL of plasma were collected into a polystyrene 96-well plate. Plasma could be analyzed freshly, within 30 min after triggering, or frozen at −80° C. Finally, the quantification of TNFα and IFNα were performed in the plasma using AlphaLISA Kit for TNFα and IFNα according to the manufacturer's instructions and read on the Ensight (PerkinElmer).
A standard curve was created by plotting on log-log the mean […] on the y-axis against the concentration on the x-axis and a 4-parameters logistic regression (4PL) was made through the points. For each blood sample, the IFNα concentrations of the samples were determined from the fit. Data were then expressed as a percentage of inhibition (PIN) for each replicate using the formula:
With mean IFNα with CL097=mean IFNα concentration of replicate samples triggered with CL097; IFNαsample1=IFNα concentration of sample 1; mean IFNα with vehicle=mean IFNα concentration of replicate samples treated with vehicle.
(§5) Curve fitting for pIC50 determination were generated using mean PIN±sem. Graphs and pIC50 calculations were derived using Prism 5.03 software (GraphPad).

[2] = system: CL097 triggered TNFα release in human whole blood; test: Ex vivo human TNFα release inhibition (human whole blood assay); type: cell-based; settings: CL097 2 μg/mL, 3 h 30 min at 37° C.
Text: as §1, §2, §3, §4
For each blood sample, the TNFα concentrations of the samples were determined from the fit. Data were then expressed a percentage of inhibition PIN for each replicate using the formula:
With mean TNFα with CL097=mean TNFα concentration of replicate samples triggered with CL097; TNFαsample1=TNFα concentration of sample 1; mean TNFα with vehicle=mean TNFα concentration of replicate samples treated with vehicle.
as §5

Compound | IC50 ([1]; Homo sapiens) | IC50 ([2]; Homo sapiens) | IC50 [1] | IC50 [2]
CCOc1cn2nc(CCC(C)(C)O)cc2cc1NC(=O)c1cccn(C(F)F)c1=O [Compound 9, 1-(difluoromethyl)-N-[6-ethoxy-2-(3-hydroxy-3-methyl-butyl)pyrazolo[1,5-a]pyridin-5-yl]-2-oxo-pyridine-3-carboxamide] | 1000 to 5000 nM | 500 to 1000 nM | – | –
CCOc1cn2nc(CCC(C)(C)O)cc2cc1NC(=O)c1cccn(C2CC2)c1=O [Compound 17, 1-cyclopropyl-N-[6-ethoxy-2-(3-hydroxy-3-methyl-butyl)pyrazolo[1,5-a]pyridin-5-yl]-2-oxo-pyridine-3-carboxamide] | 1000 to 5000 nM | 500 to 1000 nM | – | –
CCOc1cn2nc(CCC(C)(C)O)cc2cc1NC(=O)c1cccn(C)c1=O [Compound 18, N-[6-ethoxy-2-(3-hydroxy-3-methyl-butyl)pyrazolo[1,5-a]pyridin-5-yl]-1-methyl-2-oxo-pyridine-3-carboxamide] | 1000 to 5000 nM | 500 to 1000 nM | – | –
COc1cn2nc(CCC(C)(C)O)cc2cc1NC(=O)c1cccn(C2CC2)c1=O [Compound 1, 1-cyclopropyl-N-[2-(3-hydroxy-3-methylbutyl)-6-methoxypyrazolo[1,5-a]pyridin-5-yl]-2-oxopyridine-3-carboxamide] | 0.1 to 500 nM | 0.1 to 500 nM | – | –
COc1cn2nc(CC(F)C(C)(C)O)cc2cc1NC(=O)c1cccn(C2CC2)c1=O (single isomer, unassigned; enantiomer a) [Compound 25, 1-cyclopropyl-N-[2-(2-fluoro-3-hydroxy-3-methyl-butyl)-6-methoxy-pyrazolo[1,5-a]pyridin-5-yl]-2-oxo-pyridine-3-carboxamide Enantiomer A] | 500 to 1000 nM | 500 to 1000 nM | – | –
[2H]C([2H])([2H])Oc1cn2nc(CCC(C)(C)O)cc2cc1NC(=O)c1cccn(C2CC2)c1=O [Compound 24, 1-cyclopropyl-N-[2-(3-hydroxy-3-methylbutyl)-6-(trideuteriomethoxy)pyrazolo[1,5-a]pyridin-5-yl]-2-oxopyridine-3-carboxamide] | 0.1 to 500 nM | 0.1 to 500 nM | – | –
COc1cn2nc(CC(F)C(C)(C)O)cc2cc1NC(=O)c1cccn(C2CC2)c1=O (single isomer, unassigned; enantiomer b) [Compound 26, 1-cyclopropyl-N-[2-(2-fluoro-3-hydroxy-3-methyl-butyl)-6-methoxy-pyrazolo[1,5-a]pyridin-5-yl]-2-oxo-pyridine-3-carboxamide Enantiomer B] | – | – | 1000 to 5000 nM | 1000 to 5000 nM
COc1cn2nc(CC(F)C(C)(C)O)cc2cc1NC(=O)c1cccn(C2CC2)c1=O (stereo not drawn) [Compound 22, 1-cyclopropyl-N-[2-(2-fluoro-3-hydroxy-3-methyl-butyl)-6-methoxy-pyrazolo[1,5-a]pyridin-5-yl]-2-oxo-pyridine-3-carboxamide] | 500 to 1000 nM | 0.1 to 500 nM | – | –
COc1cn2nc(CCC(C)(C)O)cc2cc1NC(=O)c1cccn(C(F)F)c1=O [Compound 7, 1-(difluoromethyl)-N-[2-(3-hydroxy-3-methyl-butyl)-6-methoxy-pyrazolo[1,5-a]pyridin-5-yl]-2-oxo-pyridine-3-carboxamide] | 1000 to 5000 nM | 1000 to 5000 nM | – | –
COc1cn2nc(CCC(C)(C)O)cc2cc1NC(=O)c1cccn(C)c1=O [Compound 2, N-[2-(3-hydroxy-3-methylbutyl)-6-methoxypyrazolo[1,5-a]pyridin-5-yl]-1-methyl-2-oxopyridine-3-carboxamide] | 500 to 1000 nM | 0.1 to 500 nM | – | –
CC(C)(O)CCc1cc2cc(NC(=O)c3cccc(C(F)F)n3)c(C(N)=O)cn2n1 [Compound 20, 5-[[6-(difluoromethyl)pyridine-2-carbonyl]amino]-2-(3-hydroxy-3-methyl-butyl)pyrazolo[1,5-a]pyridine-6-carboxamide] | 1000 to 5000 nM | – | – | –
[2H]C([2H])([2H])C(O)(CCc1cc2cc(NC(=O)c3cccn(C4CC4)c3=O)c(OC)cn2n1)C([2H])([2H])[2H] [Compound 23, 1-cyclopropyl-N-[6-methoxy-2-[4,4,4-trideuterio-3-hydroxy-3-(trideuteriomethyl)butyl]pyrazolo[1,5-a]pyridin-5-yl]-2-oxo-pyridine-3-carboxamide] | 500 to 1000 nM | 0.1 to 500 nM | – | –
COc1cn2nc(CCC(C)(C)O)cc2cc1NC(=O)c1cccn(C2CCC2)c1=O [Compound 21, 1-cyclobutyl-N-[2-(3-hydroxy-3-methyl-butyl)-6-methoxy-pyrazolo[1,5-a]pyridin-5-yl]-2-oxo-pyridine-3-carboxamide] | 1000 to 5000 nM | 1000 to 5000 nM | – | –

Further lines, results first:

IC50 ([1]; Homo sapiens) | IC50 ([2]; Homo sapiens) | IC50 [1] | IC50 [2] | Compound
500 to 1000 nM | – | – | – | CNC(=O)c1cn2nc(CCC(C)(C)O)cc2cc1NC(=O)c1cccc(C(F)F)n1 [Compound 19, 5-[[6-(difluoromethyl)pyridine-2-carbonyl]amino]-2-(3-hydroxy-3-methyl-butyl)-N-methyl-pyrazolo[1,5-a]pyridine-6-carboxamide]
1000 to 5000 nM | 1000 to 5000 nM | – | – | COc1cn2nc(CCC(C)(C)O)cc2cc1NC(=O)c1cccc(C(F)(F)F)n1 [Compound 3, N-[2-(3-hydroxy-3-methylbutyl)-6-methoxypyrazolo[1,5-a]pyridin-5-yl]-6-(trifluoromethyl)pyridine-2-carboxamide]
1000 to 5000 nM | 0.1 to 500 nM | – | – | CC(C)(O)CCc1cc2cc(NC(=O)c3cccc(C(F)(F)F)n3)c(C(N)=O)cn2n1 [Compound 4, 2-(3-hydroxy-3-methylbutyl)-5-[[6-(trifluoromethyl)pyridine-2-carbonyl]amino]pyrazolo[1,5-a]pyridine-6-carboxamide]
> 5000 nM | > 5000 nM | – | – | CNC(=O)c1cn2nc(C3CCOCC3)cc2cc1NC(=O)c1cccc(C(F)F)n1 [Compound 15, 5-[[6-(difluoromethyl)pyridine-2-carbonyl]amino]-N-methyl-2-tetrahydropyran-4-yl-pyrazolo[1,5-a]pyridine-6-carboxamide]
1000 to 5000 nM | 1000 to 5000 nM | – | – | CNC(=O)c1cn2nc(C3CCN(C)CC3)cc2cc1NC(=O)c1cccc(C(F)(F)F)n1 [Compound 12, N-methyl-2-(1-methyl-4-piperidyl)-5-[[6-(trifluoromethyl)pyridine-2-carbonyl]amino]pyrazolo[1,5-a]pyridine-6-carboxamide]
1000 to 5000 nM | 1000 to 5000 nM | – | – | CNC(=O)c1cn2nc(CCC(C)(C)O)cc2cc1NC(=O)c1cccc(C(F)(F)F)n1 [Compound 5, 2-(3-hydroxy-3-methylbutyl)-N-methyl-5-[[6-(trifluoromethyl)pyridine-2-carbonyl]amino]pyrazolo[1,5-a]pyridine-6-carboxamide]

Reference: patent publication US20220218679A1, “NOVEL COMPOUNDS AND PHARMACEUTICAL COMPOSITIONS THEREOF FOR THE TREATMENT OF INFLAMMATORY DISORDERS” (Galapagos NV, priority 2019, published 2022)
